Results taken from patent publication US20250339415A1, “DISULFIDE COMPOUNDS AS MEDICAMENTS” (CYTACOAT AB, priority 2021, published 2025).

How the values were obtained:
[1] = system: S. aureus; assay: Combination therapy: Fradiomycin with PDEA, visible growth; assay type: cell-based; details: no PDEA
Experimental: (§1) Different concentrations of Fradiomycin in Mueller Hinton were prepared in 3 different concentrations of PDEA. E. coli and S. aureus were inoculated (10^5) and were incubated overnight. Readouts were “Clear” and “Foggy”.

[2] = system: E. coli; assay: as above; assay type: cell-based; details: no PDEA
Experimental: as §1

SMILES: NC[C@@H]1O[C@H](O[C@H]2[C@@H](O)[C@H](O[C@@H]3[C@@H](O)[C@H](N)C[C@H](N)[C@H]3O[C@H]3O[C@H](CN)[C@@H](O)[C@H](O)[C@H]3N)O[C@@H]2CO)[C@H](N)[C@@H](O)[C@@H]1O [Fradiomycin]
- visible growth readout ([1]; Fradiomycin 0.0156 μg/ml): Foggy
- visible growth readout ([1]; Fradiomycin 0.03125 μg/ml): Foggy
- visible growth readout ([1]; Fradiomycin 0.0625 μg/ml): Foggy
- visible growth readout ([1]; Fradiomycin 0.125 μg/ml): Foggy
- visible growth readout ([1]; Fradiomycin 0.25 μg/ml): Foggy
- visible growth readout ([1]; Fradiomycin 0.5 μg/ml): Foggy
- visible growth readout ([1]; Fradiomycin 1 μg/ml): Clear
- visible growth readout ([1]; Fradiomycin 2 μg/ml): Clear
- visible growth readout ([1]; Fradiomycin 4 μg/ml): Clear
- visible growth readout ([1]; Fradiomycin 8 μg/ml): Clear
- visible growth readout ([1]; Fradiomycin 16 μg/ml): Clear
- visible growth readout ([1]; Fradiomycin 32 μg/ml): Clear
- visible growth readout ([1]; Fradiomycin 64 μg/ml): Clear
- visible growth readout ([1]; Fradiomycin 128 μg/ml): Clear
- visible growth readout ([1]; Fradiomycin 256 μg/ml): Clear
- visible growth readout ([2]; Fradiomycin 0.0156 μg/ml): Foggy
- visible growth readout ([2]; Fradiomycin 0.03125 μg/ml): Foggy
- visible growth readout ([2]; Fradiomycin 0.0625 μg/ml): Foggy
- visible growth readout ([2]; Fradiomycin 0.125 μg/ml): Foggy
- visible growth readout ([2]; Fradiomycin 0.25 μg/ml): Foggy
- visible growth readout ([2]; Fradiomycin 0.5 μg/ml): Foggy
- visible growth readout ([2]; Fradiomycin 2 μg/ml): Clear
- visible growth readout ([2]; Fradiomycin 4 μg/ml): Clear
- visible growth readout ([2]; Fradiomycin 8 μg/ml): Clear
- visible growth readout ([2]; Fradiomycin 16 μg/ml): Clear
- visible growth readout ([2]; Fradiomycin 32 μg/ml): Clear
- visible growth readout ([2]; Fradiomycin 64 μg/ml): Clear
- visible growth readout ([2]; Fradiomycin 128 μg/ml): Clear
- visible growth readout ([2]; Fradiomycin 256 μg/ml): Clear
